Data taken from patent publication US8574590B2 (Integral Molecular, Inc., priority 2003, dated 2013).
Read-outs that look alike come from different tables or passages of the source.

Assays:
[1] = depending on the ionic composition of the membrane; cited from earlier work
[2] = read-out: Kd for Ca^++; cited from earlier work
[3] = system: Gag/luciferase-lipoparticles; test: Melittin poration of Gag/luciferase-lipoparticles (luciferase luminescence); format: biochemical; details: melittin 0.3 to 105 uM, 30 minutes
Method: FIG. 24. […] Lipoparticles were constructed to contain a luciferase enzyme inside the lipoparticle. […] To insure the integrity of the luciferase, after each addition of melittin, the same sample was lysed with Triton X-100 (circles) and again measured.
Lipoparticles containing a Gag-luciferase fusion protein were prepared as described herein. Melittin, ranging from 0.3 to 105 uM in final concentration, was added to solutions of Gag/luciferase-lipoparticles (MOPS pH 6.5 buffer), mixed, and incubated for 30 minutes. A 5 μl aliquot of the Lipoparticle solution was then transferred to a 96-well plate containing 50 μl of Luciferase assay reagent (Promega Steady Glo Luciferase Assay System) which contains the necessary reagents for enzymatic activity, including luciferin, ATP, and Mg^2+. Luminescence was measured for 1 second integrations in a Wallac Victor2V. […] Triton X-100 was used to lyse luciferase-lipoparticles as a positive control.

[4] = target: Kv1.3 (Homo sapiens, UniProt P22001); details: cited from earlier work
Sequence of Kv1.3 (P22001 whole entry): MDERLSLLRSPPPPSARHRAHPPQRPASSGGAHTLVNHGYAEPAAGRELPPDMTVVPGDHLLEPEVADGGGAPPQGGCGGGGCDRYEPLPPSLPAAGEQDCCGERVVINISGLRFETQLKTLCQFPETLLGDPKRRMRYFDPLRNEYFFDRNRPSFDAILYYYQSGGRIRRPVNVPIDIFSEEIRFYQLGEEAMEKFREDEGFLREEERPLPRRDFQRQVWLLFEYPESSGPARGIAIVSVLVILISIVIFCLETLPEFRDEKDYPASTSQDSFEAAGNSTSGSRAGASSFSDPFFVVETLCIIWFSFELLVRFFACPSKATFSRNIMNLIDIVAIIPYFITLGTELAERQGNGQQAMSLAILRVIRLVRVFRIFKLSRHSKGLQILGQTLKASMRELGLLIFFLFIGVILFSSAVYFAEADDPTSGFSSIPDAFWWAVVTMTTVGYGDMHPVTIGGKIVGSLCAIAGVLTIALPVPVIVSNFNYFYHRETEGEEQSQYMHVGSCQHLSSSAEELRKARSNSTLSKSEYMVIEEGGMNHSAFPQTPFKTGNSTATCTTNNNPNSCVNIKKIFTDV

[5] = target: Shaker (Drosophila melanogaster, UniProt P08510); details: cited from earlier work
Sequence of Shaker (P08510 whole entry): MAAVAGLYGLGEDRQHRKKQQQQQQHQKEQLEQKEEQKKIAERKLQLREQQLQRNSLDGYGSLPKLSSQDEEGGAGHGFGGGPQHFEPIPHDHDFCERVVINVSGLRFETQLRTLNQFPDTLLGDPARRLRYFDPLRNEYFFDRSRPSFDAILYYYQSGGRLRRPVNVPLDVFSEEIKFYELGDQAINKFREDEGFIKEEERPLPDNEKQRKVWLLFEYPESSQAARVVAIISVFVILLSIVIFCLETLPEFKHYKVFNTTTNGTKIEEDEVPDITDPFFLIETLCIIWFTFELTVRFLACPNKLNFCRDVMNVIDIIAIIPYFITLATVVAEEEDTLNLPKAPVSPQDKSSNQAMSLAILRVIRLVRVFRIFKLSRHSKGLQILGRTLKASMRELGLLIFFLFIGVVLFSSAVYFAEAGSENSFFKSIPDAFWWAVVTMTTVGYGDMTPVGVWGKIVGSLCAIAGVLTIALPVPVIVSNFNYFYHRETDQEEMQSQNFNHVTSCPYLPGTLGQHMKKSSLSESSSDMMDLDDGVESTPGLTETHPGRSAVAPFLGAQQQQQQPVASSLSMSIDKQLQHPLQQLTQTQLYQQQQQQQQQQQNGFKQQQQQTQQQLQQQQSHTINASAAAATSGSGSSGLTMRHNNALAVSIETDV

[6] = system: K-channels; details: cited from earlier work
[7] = system: Ca-activated K-channels; details: cited from earlier work

CCCCCCCCCCCCCCCCCc1cc(=O)oc2cc(O)ccc12 [4-heptadecyl-7-hydroxycoumarin]
pKa range [1]: 6.35-11.15

Cc1ccc(N(CC(=O)O)CC(=O)O)c(OCCOc2cc3cc(-c4ncc(C(=O)O)o4)oc3cc2N(CC(=O)O)CC(=O)O)c1 [Fura-2]
Kd [2]: 140 nM

CC[C@H](C)[C@H](NC(=O)CN)C(=O)NCC(=O)N[C@@H](C)C(=O)N[C@H](C(=O)N[C@@H](CC(C)C)C(=O)N[C@@H](CCCCN)C(=O)N[C@H](C(=O)N[C@@H](CC(C)C)C(=O)N[C@H](C(=O)N[C@H](C(=O)NCC(=O)N[C@@H](CC(C)C)C(=O)N1CCC[C@H]1C(=O)N[C@@H](C)C(=O)N[C@@H](CC(C)C)C(=O)N[C@H](C(=O)N[C@@H](CO)C(=O)N[C@@H](Cc1c[nH]c2ccccc12)C(=O)N[C@H](C(=O)N[C@@H](CCCCN)C(=O)N[C@@H](CCCNC(=N)N)C(=O)N[C@@H](CCCCN)C(=O)N[C@@H](CCCNC(=N)N)C(=O)N[C@@H](CCC(N)=O)C(=O)N[C@@H](CCC(N)=O)C(N)=O)[C@@H](C)CC)[C@@H](C)CC)[C@@H](C)O)[C@@H](C)O)C(C)C)C(C)C [Melittin]
permeabilization of lipoparticles (luciferase signal) [3]: increase of the luminescent signal
permeabilization of lipoparticles (luciferase signal) ([3]; listed as melittin): the lipoparticles were permeabilized

Agitoxin-2: toxin, inhibitor of K-channels
Blocking of Kv1.3 [4]: Blocks Kv1.3 and Shaker
Blocking of Shaker [5]: Blocks Kv1.3 and Shaker

Alpha-Dendrotoxin
Blocking of Kv1.3 [4]: Blocks Kv1.3 and Shaker
Blocking of Shaker [5]: Blocks Kv1.3 and Shaker
binding under high ionic strength conditions ([6]; high ionic strength): Binds very weakly under high ionic strength
binding under low ionic strength conditions ([6]; low ionic strength): Binds strongly under low ionic strength conditions

Charybdotoxin
Blocking of Kv1.3 [4]: Blocks Kv1.3 and Shaker
Blocking of Kv1.3 ([4]; listed as CHTX): highly specific, potent, and impermeant blocker
Blocking of Shaker [5]: Blocks Kv1.3 and Shaker
Blocking of Shaker ([5]; listed as CHTX): highly specific, potent, and impermeant blocker
effect of Ca on binding [6]: Ca inhibits binding
binding at low ionic strength, high pH (8.5) ([6]; low ionic strength, high pH (8.5)): Low ionic strength, high pH (8.5) enhances binding

Iberiotoxin: toxin, inhibitor of K-channels (QFTDVDCSVSKECWSVCKDLFGVDRGKCMGKKCRCYQ; UniProt P24663 1-37, looked up)
Blocking of Kv1.3 [4]: not Kv1.3
Blocking of Shaker [5]: not
Blocking of Ca-activated K-channels [7]: Blocks

Margatoxin
Blocking of Kv1.3 [4]: Blocks
Blocking of Shaker [5]: not Shaker
